From patent US8268848B2, “Cyclopropane compound” (Eisai R&D Management Co., Ltd., priority 2010, dated 2012)
Where two headings read alike, the source gives them in different places.

Molecular target: T1, OX2 (Homo sapiens, UniProt O43614)
T1 sequence (O43614 1-444): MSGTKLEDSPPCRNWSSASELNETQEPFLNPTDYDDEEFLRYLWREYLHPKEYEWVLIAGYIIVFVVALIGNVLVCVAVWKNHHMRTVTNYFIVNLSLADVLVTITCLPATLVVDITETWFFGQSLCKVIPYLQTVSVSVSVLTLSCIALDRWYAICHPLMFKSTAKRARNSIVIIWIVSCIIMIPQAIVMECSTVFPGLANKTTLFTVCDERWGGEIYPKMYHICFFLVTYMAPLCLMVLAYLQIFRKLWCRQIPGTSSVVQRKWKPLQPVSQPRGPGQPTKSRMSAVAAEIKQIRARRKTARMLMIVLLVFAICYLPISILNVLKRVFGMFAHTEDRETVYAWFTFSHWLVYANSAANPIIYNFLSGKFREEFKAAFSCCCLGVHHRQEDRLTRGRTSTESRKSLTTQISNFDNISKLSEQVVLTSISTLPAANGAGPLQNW
Test: Measurement of orexin receptor-binding ability ([125I]-OX-A, cell membranes, OX2)
Parameters: expressed in transfected cells; host or cells: CHO cells (membrane preparation)
Conditions: membranes of recombinant CHO cells expressing OX2, 0.2 nM [125I]-OX-A
Experimental: 1. Measurement of Orexin Receptor-Binding Ability
The assay was carried out using a 96-well Wheat Germ Agglutinin Flash Plate (PerkinElmer). The volume in a single assay well was 100 ul, and the composition of the reaction solution was as follows:
25 mM HEPES (pH 7.5), 1 mM CaCl2, 4.5 mM MgCl2, 0.5% BSA (bovine serum albumin), 0.1% sodium azide, 0.05% Tween-20, and 0.2% DMSO.
Cell membranes were prepared from recombinant CHO cells that expressed OX2 or OX1. The cell membranes were used in an amount of 5 μg protein/assay. […] Finally, the radioactivity of each well was measured using a scintillation counter (TopCount, PerkinElmer).

Row | IC50 (read-out: OX2 (IC50)) | Structure (SMILES) | IC50 (OX2 (IC50) nM)
1 |  | COc1cc([C@]2(COc3cnc(C)nc3C)C[C@H]2C(=O)Nc2ccc(F)cn2)ccc1F [Example 314] | 173 nM
2 | 19 nM | Cc1ncc(OC[C@@]2(c3ccc(F)cc3)C[C@H]2C(=O)Nc2ccc(F)c(F)c2)c(C)n1 [Example 106] | 
3 | 14 nM | COCc1nc(C)ncc1OC[C@@]1(c2ccccc2)C[C@H]1C(=O)Nc1cc(Cl)ccn1 [Example 143] | 
4 |  | COc1cccc([C@]2(COc3cnc(C)nc3C)C[C@H]2C(=O)Nc2ccc(F)cc2)c1 [Example 187] | 16 nM
5 | 31 nM | CCc1nc(C)ncc1OC[C@@]1(c2ccccc2)C[C@H]1C(=O)Nc1ccc(F)cc1 [Example 124] | 
6 | 7 nM | COCc1nc(C)ncc1OC[C@@]1(c2cc(F)cc(OC)c2)C[C@H]1C(=O)Nc1ccc(F)cc1 [Example 231, (1R,2S)-2-(3-fluoro-5-methoxyphenyl)-N-(4-fluorophenyl)-2-{[(4-methoxymethyl-2-methylpyrimidin-5-yl)oxy]methyl}cyclopropanecarboxamide] | 
7 | 29 nM | CCc1nc(C)ncc1OC[C@@]1(c2ccccc2)C[C@H]1C(=O)Nc1cncc(OC)c1 [Example 123] | 
8 | 28 nM | Cc1ncc(OC[C@@]2(c3ccc(F)c(F)c3)C[C@H]2C(=O)Nc2cc(F)ccc2F)c(C)n1 [Example 172] | 
9 | 10 nM | CCc1nc(C)ncc1OC[C@@]1(c2cccc(F)c2)C[C@H]1c1nc2cnccc2[nH]1 [Example 309] | 
10 | 9 nM | COCc1nc(C)ncc1OC[C@@]1(c2ccccc2)C[C@H]1C(=O)Nc1cc(C)c(F)cn1 [Example 145, (1R,2S)-N-(5-fluoro-4-methylpyridin-2-yl)-2-{[(4-methoxymethyl-2-methylpyrimidin-5-yl)oxy]methyl}-2-phenylcyclopropanecarboxamide] | 
11 | 27 nM | COCc1nc(C)ncc1OC[C@@]1(c2ccc(F)cc2)C[C@H]1C(=O)Nc1ccccn1 [Example 206] | 
12 | 7 nM | COCc1nc(C)ncc1OC[C@@]1(c2cccc(F)c2)C[C@H]1C(=O)Nc1cc(F)ccc1F [Example 197, (1R,2S)-N-(2,5-difluorophenyl)-2-(3-fluorophenyl)-2-{[(4-methoxymethyl-2-methylpyrimidin-5-yl)oxy]methyl}cyclopropanecarboxamide] | 
13 | 10 nM | COCc1nc(C)ncc1OC[C@@]1(c2ccccc2)C[C@H]1C(=O)Nc1ccc(F)cc1 [Example 149, (1R,2S)-N-(4-fluorophenyl)-2-{[(4-methoxymethyl-2-methylpyrimidin-5-yl)oxy]methyl}-2-phenylcyclopropanecarboxamide] | 
14 | 10 nM | COCc1nc(C)ncc1OC[C@@]1(c2ccccc2)C[C@H]1C(=O)Nc1ccc(F)c(F)c1 [Example 150, (1R,2S)-N-(3,4-difluorophenyl)-2-{[(4-methoxymethyl-2-methylpyrimidin-5-yl)oxy]methyl}-2-phenylcyclopropanecarboxamide] | 
15 | 84 nM | COc1cc([C@]2(COc3cnc(C)nc3C)C[C@H]2C(=O)Nc2ccc(Cl)cn2)ccc1F [Example 257] | 
16 |  | Cc1ncc(OC[C@@]2(c3cccc(C#N)c3)C[C@H]2C(=O)Nc2ccc(F)cn2)c(C)n1 [Example 116] | 14 nM
17 | 7 nM | Cc1ncc(OC[C@@]2(c3ccc(F)c(F)c3)C[C@H]2C(=O)Nc2ccc(F)c(F)c2)c(C)n1 [Example 170, (1R,2S)-N,2-bis(3,4-difluorophenyl)-2-{[(2,4-dimethylpyrimidin-5-yl)oxy]methyl}cyclopropanecarboxamide] | 
18 | 15 nM | COCc1nc(C)ncc1OC[C@@]1(c2ccc(F)c(OC)c2)C[C@H]1C(=O)Nc1ccc(F)c(F)c1 [Example 238] | 
19 | 15 nM | Cc1ncc(OC[C@@]2(c3cc(F)cc(F)c3)C[C@H]2C(=O)Nc2cc(F)ccc2F)c(C)n1 [Example 136] | 
20 | 11 nM | COCc1nc(C)ncc1OC[C@@]1(c2ccc(F)cc2)C[C@H]1C(=O)Nc1cccc(F)c1 [Example 208] | 
21 | 17 nM | CCc1nc(C)ncc1OC[C@@]1(c2ccc(F)cc2)C[C@H]1C(=O)Nc1cccc(F)c1 [Example 249] | 
22 | 21 nM | Cc1ncc(OC[C@@]2(c3cccc(C#N)c3)C[C@H]2C(=O)Nc2ccc(F)cc2)c(C)n1 [Example 115] | 
23 |  | Cc1ncc(OC[C@@]2(c3ccc(F)cc3)C[C@H]2C(=O)Nc2cccc(F)c2)c(C)n1 [Example 107] | 41 nM
24 | 21 nM | COCc1nc(C)ncc1OC[C@@]1(c2ccc(F)c(F)c2)C[C@H]1C(=O)Nc1cccc(F)c1F [Example 217] | 
25 | 27 nM | COCc1nc(C)ncc1OCC1(c2cccc(Cl)c2)CC1C(=O)Nc1ccc(F)cc1 (stereo not drawn) [Example 224] | 
26 | 12 nM | COCc1nc(C)ncc1OC[C@@]1(c2ccccc2)C[C@H]1C(=O)Nc1ccc(C(F)(F)F)cn1 [Example 144] | 

Row | IC50 (read-out: OX2 (IC50)) | Structure (SMILES) | IC50 (OX2 (IC50) nM)
27 | 69 nM | COCc1nc(C)ncc1OC[C@@]1(c2ccccc2)C[C@H]1C(=O)Nc1cc(F)ccc1F [Example 147] | 
28 | 30 nM | COc1cc(F)cc(C2(COc3cnc(C)nc3C)CC2C(=O)Nc2ccccn2)c1 (stereo not drawn) [Example 251] | 
29 | > 60 nM | COc1cc([C@]2(COc3cnc(C)nc3C)C[C@H]2C(=O)Nc2cc(C)c(F)cn2)ccc1F [Example 258] | 
30 | 31 nM | COCc1nc(C)ncc1OC[C@@]1(c2ccc(F)c(OC)c2)C[C@H]1C(=O)Nc1ccc(F)cc1 [Example 237] | 
31 | 6 nM | COCc1nc(C)ncc1OC[C@@]1(c2cc(F)cc(OC)c2)C[C@H]1C(=O)Nc1ccccn1 [Example 235, (1R,2S)-2-(3-fluoro-5-methoxyphenyl)-2-[(4-methoxymethyl-2-methylpyrimidin-5-yl)oxymethyl]-N-(pyridin-2-yl)cyclopropanecarboxamide] | 
32 | 7 nM | COCc1nc(C)ncc1OC[C@@]1(c2cccc(Cl)c2)C[C@H]1C(=O)Nc1cc(C)c(F)cn1 [Example 226, (1R,2S)-2-(3-chlorophenyl)-N-(5-fluoro-4-methylpyridin-2-yl)-2-{[(4-methoxymethyl-2-methylpyrimidin-5-yl)oxy]methyl}cyclopropanecarboxamide] | 
33 |  | Cc1ncc(OC[C@@]2(c3cccc(F)c3)C[C@H]2C(=O)Nc2cccc(F)c2)c(C)n1 [Example 83] | 14 nM
34 | 7 nM | COCc1nc(C)ncc1OC[C@@]1(c2ccc(F)c(OC)c2)C[C@H]1C(=O)Nc1cc(C)c(F)cn1 [Example 239, (1R,2S)-2-(4-fluoro-3-methoxyphenyl)-N-(5-fluoro-4-methylpyridin-2-yl)-2-{[(4-methoxymethyl-2-methylpyrimidin-5-yl)oxy]methyl}cyclopropanecarboxamide] | 
35 | 12 nM | COCc1nc(C)ncc1OC[C@@]1(c2ccc(F)c(F)c2)C[C@H]1C(=O)Nc1cc(F)ccc1F [Example 215] | 
36 | 21 nM | COCc1nc(C)ncc1OC[C@@]1(c2cc(F)cc(F)c2)C[C@H]1C(=O)Nc1cc(C)c(F)cn1 [Example 220] | 
37 | 41 nM | COc1cc(F)cc(C2(COc3cnc(C)nc3C)CC2C(=O)Nc2ccc(C#N)cn2)c1 (stereo not drawn) [Example 253] | 
38 | 14 nM | CCc1nc(C)ncc1OC[C@@]1(c2ccc(F)cc2)C[C@H]1C(=O)Nc1ccc(F)cc1 [Example 250] | 
39 | 6 nM | COCc1nc(C)ncc1OC[C@@]1(c2cc(F)cc(OC)c2)C[C@H]1C(=O)Nc1ccc(F)cn1 [Example 233, (1R,2S)-2-(3-fluoro-5-methoxyphenyl)-N-(5-fluoropyridin-2-yl)-2-[(4-methoxymethyl-2-methylpyrimidin-5-yl)oxymethyl]cyclopropanecarboxamide] | 
40 | 14 nM | COCc1nc(C)ncc1OCC1(c2cccc(Cl)c2)CC1C(=O)Nc1ccc(C#N)cn1 (stereo not drawn) [Example 227] | 
41 | 31 nM | Cc1ncc(OC[C@@]2(c3cc(F)cc(F)c3)C[C@H]2c2nc3ncccc3[nH]2)c(C)n1 [Example 308] | 
42 | 90 nM | Cc1ncc(OC[C@@]2(c3ccccc3)C[C@H]2c2nc3cnccc3[nH]2)c(C)n1 [Example 304] | 
43 |  | COCc1nc(C)ncc1OCC1(c2cccc(Cl)c2)CC1C(=O)Nc1ccc(F)cn1 (stereo not drawn) [Example 222] | 68 nM
44 | 20 nM | COCc1nc(C)ncc1OC[C@@]1(c2ccccc2)C[C@H]1C(=O)Nc1cccc(F)c1 [Example 148] | 
45 | 45 nM | COCCc1nc(C)ncc1OC[C@@]1(c2cccc(F)c2)C[C@H]1C(=O)Nc1ccccn1 [Example 228] | 
46 | > 60 nM | COc1cc([C@]2(COc3cnc(C)nc3C)C[C@H]2C(=O)Nc2ccccn2)ccc1F [Example 259] | 
47 | 37 nM | COCc1nc(C)ncc1OC[C@@]1(c2ccccc2)C[C@H]1C(=O)Nc1ccc(F)cc1F [Example 146] | 
48 | 48 nM | COCc1nc(C)ncc1OC[C@@]1(c2ccc(F)cc2)C[C@H]1C(=O)Nc1ccc(F)cc1F [Example 209] | 
49 | > 60 nM | COCc1nc(C)ncc1OC[C@@]1(c2ccc(F)cc2)C[C@H]1C(=O)Nc1cc(F)ccc1F [Example 210] | 
50 | 27 nM | COc1cc(F)cc([C@]2(COc3cnc(C)nc3C)C[C@H]2C(=O)Nc2ccc(Cl)cn2)c1 [Example 255] | 
51 | 26 nM | Cc1ncc(OC[C@@]2(c3ccccc3)C[C@H]2C(=O)Nc2ccnc(C(F)(F)F)c2)c(C)n1 [Example 44] | 
